This note sets out measurements from patent US20080051429A1, “USE OF 4-AMINO-PIPERIDINES FOR TREATING SLEEP DISORDERS” (priority 2006, published 2008).

Like-named read-outs stand apart in the source and are kept apart here.

Series [1] addresses T1, D2 (Homo sapiens, UniProt P14416). The series is described as follows: R-SAT broad profiling. It is filed as cell-based. Also noted: expressed in transfected cells; host or cells: NIH3T3. As to conditions: read-out: pEC50 or pIC50 (converted). On the procedure:
(§1) The functional receptor assay, Receptor Selection and Amplification Technology (R-SAT), was used (with minor modifications from that previously described U.S. Pat. No. 5,707,798) to screen compounds for efficacy at the 5-HT2A receptor. Briefly, NIH3T3 cells were grown in 96 well tissue culture plates to 70-80% confluence. Cells were transfected for 12-16 hours with plasmid DNAs using superfect (Qiagen Inc.) as per manufacture's protocols. R-SAT's were generally performed with 50 ng/well of receptor and 20 ng/well of Beta-galactosidase plasmid DNA. All receptor and G-protein constructs used were in the pSI mammalian expression vector (Promega Inc) as described in U.S. Pat. No. 5,707,798. The 5HT2A receptor gene was amplified by nested PCR from brain cDNA using the oligodeoxynucleotides based on the published sequence (see Saltzman et. al. Biochem. Biophys. Res. Comm. 181:1469-78 (1991)). Large-scale transfections, cells were transfected for 12-16 hours, then trypsinized and frozen in DMSO. Frozen cells were later thawed, plated at 10,000-40,000 cells per well of a 96 well plate that contained drug. With both methods, cells were then grown in a humidified atmosphere with 5% ambient CO2 for five days. Media was then removed from the plates and marker gene activity was measured by the addition of the beta-galactosidase substrate ONPG (in PBS with 5% NP-40). The resulting colorimetric reaction was measured in a spectrophotometric plate reader (Titertek Inc.)at […]. All data were analyzed using the computer program XLFit (IDBSm). Efficacy is the percent maximal repression compared to repression by a control compound (ritanserin in the case of 5HT2A). pIC50 is the negative of the log(IC50), where IC50 is the calculated concentration in Molar that produces 50% maximal repression.
(§2) The R-SAT assay (described above in example 289) was used to investigate the selectivity of 4-(4-Fluoro-benzyl)-3-(4-isobutoxy-benzyl)-8-methyl-1-oxa-3,8-diaza-spiro[4.5]decan-2-one.

For a further series, the target named is 5HT1D (Homo sapiens, UniProt P28221). The series is described as follows: R-SAT broad profiling. It is filed as cell-based. On the set-up: expressed in transfected cells; host or cells: NIH3T3. As to conditions: read-out: pEC50 or pIC50 (converted). On the procedure: as §1, §2
For the next series, the target named is 5HT1E (Homo sapiens, UniProt P28566). In words: R-SAT broad profiling. As to conditions: read-out: pEC50 or pIC50 (converted). Also noted: expressed in transfected cells; host or cells: NIH3T3. It is filed as cell-based. On the procedure: as §1, §2
A further series addresses H1 (Homo sapiens, UniProt P35367). The series is described as follows: R-SAT broad profiling. The series is classed as cell-based. Also noted: expressed in transfected cells; host or cells: NIH3T3. The following applies: agonist; read-out: pEC50 or pIC50 (converted). On the procedure:
as §1, §2

The next series concerns the target 5HT2B (Homo sapiens, UniProt P41595). The series is described as follows: R-SAT broad profiling. The series is classed as cell-based. Also noted: expressed in transfected cells; host or cells: NIH3T3. As to conditions: read-out: pEC50 or pIC50 (converted). As to the method:
as §1, §2

The target of series [2] is T1, D2. In words: R-SAT broad profiling. It is filed as cell-based. On the set-up: expressed in transfected cells; host or cells: NIH3T3. The following applies: read-out: pEC50/pIC50 (converted). As to the method: as §1, with “Frozen cells were later thawed, plated at 10,000-40,000 cells per well of a 96 well plate that contained drug. With both methods, cells were then grown in a humidified atmosphere with 5% ambient CO2 for five days.” left out, “Efficacy is the percent maximal repression compared to repression by a control compound (ritanserin in the case of 5HT2A). pIC50 is the negative of the log(IC50), where IC50 is the calculated concentration in Molar that produces 50% maximal repression.” left out

Series [3] has as its system healthy volunteers. In words: Continuous Performance Test (CPT). The series is classed as in vivo, human. On the procedure:
Performance Assessment: A Continuous Performance Test (CPT; Rosvold M E, Mirsky A F, Sarason I, Bransome E R Jr., Beck L H (1956) A continuous performance test for brain damage. J Consult Psychol 20:343-350, which is incorporated herein by reference in its entirety), was used to evaluate attention and vigilance. The test was administered both during the evening and the morning following the baseline PSG on Day 1 and the evaluation PSG on Day 13. Participants were rapidly presented a numerical train with a target number as point of reference. Participants pushed a button rapidly when the target number appeared in the number list. The procedure lasted three minutes. The number of targets detected and the number of false alarms were assessed.

Series [4] relates to healthy volunteers. The series is described as follows: Clinical safety evaluation. It is filed as in vivo, human. As to the method:
Safety: 3-positional vital signs, ECGs, body temperature, and respiratory rates as well as blood chemistries, hematology, and urinalysis served as safety measures. Safety measures were assessed at screening, baseline (Day −1), Day 1, Day 2, Day 13, and Day 14. Any observed or reported adverse events were recorded. Blood samples were taken on Day −1 (baseline) and on Day 14 (steady state). Two weeks after the termination of treatment administration (Day 28), an end-of-study visit was conducted, and included a clinical safety evaluation.

Sequence of 5HT2B (P41595 whole entry): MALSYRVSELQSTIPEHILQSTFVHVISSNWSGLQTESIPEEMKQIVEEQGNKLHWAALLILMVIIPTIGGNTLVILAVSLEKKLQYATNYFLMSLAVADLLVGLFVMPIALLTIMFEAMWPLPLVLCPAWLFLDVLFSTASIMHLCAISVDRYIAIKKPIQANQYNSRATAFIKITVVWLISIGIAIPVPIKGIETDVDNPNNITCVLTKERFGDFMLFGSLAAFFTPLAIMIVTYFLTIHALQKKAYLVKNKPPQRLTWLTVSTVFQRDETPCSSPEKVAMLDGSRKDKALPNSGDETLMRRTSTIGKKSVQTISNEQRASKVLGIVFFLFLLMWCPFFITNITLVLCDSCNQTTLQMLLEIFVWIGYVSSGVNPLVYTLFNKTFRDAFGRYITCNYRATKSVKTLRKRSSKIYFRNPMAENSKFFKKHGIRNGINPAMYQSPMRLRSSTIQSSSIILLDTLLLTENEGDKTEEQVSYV
T1 sequence (P14416 whole entry): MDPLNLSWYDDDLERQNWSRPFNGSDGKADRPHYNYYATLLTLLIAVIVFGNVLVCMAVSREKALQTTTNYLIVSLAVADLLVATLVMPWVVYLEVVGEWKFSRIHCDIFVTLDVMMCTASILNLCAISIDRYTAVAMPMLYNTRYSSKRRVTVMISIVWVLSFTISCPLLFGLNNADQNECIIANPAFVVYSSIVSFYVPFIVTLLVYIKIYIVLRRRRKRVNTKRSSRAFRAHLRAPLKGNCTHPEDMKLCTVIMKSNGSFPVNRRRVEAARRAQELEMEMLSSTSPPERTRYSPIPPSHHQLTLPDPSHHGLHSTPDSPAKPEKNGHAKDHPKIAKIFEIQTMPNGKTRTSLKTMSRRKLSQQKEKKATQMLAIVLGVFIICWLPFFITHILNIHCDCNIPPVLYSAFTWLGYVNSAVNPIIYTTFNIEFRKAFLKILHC
Sequence of 5HT1D (P28221 whole entry, species assumed): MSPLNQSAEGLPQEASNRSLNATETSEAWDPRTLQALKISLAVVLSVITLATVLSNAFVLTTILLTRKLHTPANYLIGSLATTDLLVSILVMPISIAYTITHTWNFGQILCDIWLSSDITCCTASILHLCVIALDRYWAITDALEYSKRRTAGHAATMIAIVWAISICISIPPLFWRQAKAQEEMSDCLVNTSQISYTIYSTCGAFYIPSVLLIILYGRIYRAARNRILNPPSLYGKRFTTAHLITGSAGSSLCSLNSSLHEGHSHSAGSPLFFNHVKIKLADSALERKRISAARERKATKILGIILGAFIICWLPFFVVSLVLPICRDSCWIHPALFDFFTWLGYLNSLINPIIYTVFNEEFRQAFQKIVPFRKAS
Sequence of 5HT1E (P28566 whole entry): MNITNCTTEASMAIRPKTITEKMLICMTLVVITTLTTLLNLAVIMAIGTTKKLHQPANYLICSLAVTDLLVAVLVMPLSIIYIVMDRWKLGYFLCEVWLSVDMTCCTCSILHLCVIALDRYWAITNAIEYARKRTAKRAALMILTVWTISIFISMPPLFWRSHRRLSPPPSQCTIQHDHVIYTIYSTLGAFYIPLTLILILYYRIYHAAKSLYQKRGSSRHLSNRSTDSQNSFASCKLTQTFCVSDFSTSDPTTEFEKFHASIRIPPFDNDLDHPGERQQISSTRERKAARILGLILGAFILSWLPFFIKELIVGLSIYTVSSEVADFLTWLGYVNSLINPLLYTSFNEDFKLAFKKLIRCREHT
Sequence of H1 (P35367 whole entry): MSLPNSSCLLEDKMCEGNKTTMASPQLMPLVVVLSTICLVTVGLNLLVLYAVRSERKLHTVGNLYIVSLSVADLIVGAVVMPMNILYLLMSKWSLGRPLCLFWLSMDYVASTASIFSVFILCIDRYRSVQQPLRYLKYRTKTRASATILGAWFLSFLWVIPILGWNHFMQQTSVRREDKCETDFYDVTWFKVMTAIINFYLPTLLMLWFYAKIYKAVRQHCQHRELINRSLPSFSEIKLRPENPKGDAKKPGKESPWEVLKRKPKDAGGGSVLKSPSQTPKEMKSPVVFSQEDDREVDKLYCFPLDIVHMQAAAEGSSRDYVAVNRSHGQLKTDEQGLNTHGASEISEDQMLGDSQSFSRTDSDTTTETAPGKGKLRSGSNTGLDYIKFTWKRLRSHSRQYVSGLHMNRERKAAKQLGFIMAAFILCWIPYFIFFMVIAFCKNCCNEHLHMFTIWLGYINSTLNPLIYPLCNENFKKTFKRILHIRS

Consider `CC(C)COc1ccc(CN2C(=O)OC3(CCN(C)CC3)C2Cc2ccc(F)cc2)cc1.Cl` (racemic) [Example 69NLS75, 4-(4-Fluorobenzyl)-3-(4-isobutoxybenzyl)-8-methyl-1-oxa-3,8-diazaspiro[4.5]decan-2-one, hydrochloride], for which the EC50 on D2 [1] (agonist), at 5HT1D (agonist), on 5HT1E (agonist), at H1 and on 5HT2B (agonist) was greater than 3.16 µM throughout. Moreover, the IC50 on D2 [1] (antagonist) was greater than 3.16 µM; at 5HT1D (antagonist) it was greater than 0.562 µM; on 5HT1E (antagonist) it was greater than 0.631 µM; on 5HT2B (antagonist), greater than 3.16 µM; at 5HT2B (inverse), greater than 2.51 µM.
Take `COc1ccc(CC(=O)N(Cc2ccc(C)cc2)C2CCN(C)CC2)cc1` [Example 50ELH27, 2-(4-Methoxyphenyl)-N-(4-methylbenzyl)-N-(1-methylpiperidin-4-yl)acetamide]: the EC50 on D2 [2] (agonist) was greater than 3.16 µM. Further, the IC50 on D2 [2] (antagonist) is greater than 3.16 µM.
With `CC(C)COc1ccc(CNC(=O)N(Cc2ccc(F)cc2)C2CCN(C)CC2)cc1` [N-(1-methylpiperidin-4-yl)-N-(4-fluorophenylmethyl)-N′-(4-(2-methylpropyloxy)phenylmethyl)carbamide], in the series with healthy volunteers [3] (any dose, evening and morning (p>0.10)), the “CPT detected targets and false alarm change scores” value is on record as “absence of effect”. For the same compound, the daytime functioning entry with healthy volunteers [3] (in words) is “did not impair”. Further, in the series with healthy volunteers [4] (1 to 20 mg once daily, 14 days), the safety and tolerability entry was “safe and well tolerated”; the serious adverse events result was “no serious adverse events”. Also, the “nature of adverse events” value in the series with healthy volunteers [4] (comparable across placebo and treated groups) was “mild to moderate”.
